Experimental data taken from the NIST ThermoML archive (doi:10.1021/je700546r).
Values joined by “and” are separate entries in the source; they are usually repeats but may differ in a detail not shown here. Equal values may be shown once.

Legend:
[1] = for Triple point temperature: Adiabatic calorimetry
[2] = Molar enthalpy of transition or fusion; settings: Crystal 1; Adiabatic calorimetry

ON=C1CCCCC1 [cyclohexanone oxime]
[1]
Settings | vapor or sublimation pressure
285.7 K, Crystal 2, Transpiration method | 0.00078 kPa
288.11 K, Crystal 2, Knudsen effusion | 0.001028 kPa
290 K, Crystal 2, Transpiration method | 0.00118 kPa
292.6 K, Crystal 2, Transpiration method | 0.00157 kPa
293.82 K, Crystal 2, Knudsen effusion | 0.00186 kPa
293.87 K, Crystal 2, Knudsen effusion | 0.001759 kPa
295.1 K, Crystal 2, Transpiration method | 0.00215 kPa
298.1 K, Crystal 2, Transpiration method | 0.00275 kPa
298.2 K, Crystal 2, Transpiration method | 0.00302 kPa and 0.00293 kPa
298.77 K, Crystal 2, Knudsen effusion | 0.003118 kPa
301.1 K, Crystal 2, Transpiration method | 0.00396 kPa
302.9 K, Crystal 1, Transpiration method | 0.005 kPa
303.73 K, Crystal 1, Knudsen effusion | 0.005234 kPa
303.74 K, Crystal 1, Knudsen effusion | 0.005145 kPa
305.4 K, Crystal 1, Transpiration method | 0.00626 kPa
307.6 K, Crystal 1, Transpiration method | 0.00806 kPa
308.7 K, Crystal 1, Knudsen effusion | 0.00837 kPa
310.2 K, Crystal 1, Transpiration method | 0.01034 kPa
313 K, Crystal 1, Transpiration method | 0.0136 kPa
313.62 K, Crystal 1, Knudsen effusion | 0.01375 kPa
315.3 K, Crystal 1, Transpiration method | 0.01601 kPa
318 K, Crystal 1, Transpiration method | 0.02155 kPa
320.3 K, Crystal 1, Transpiration method | 0.02671 kPa
323.1 K, Crystal 1, Transpiration method | 0.03364 kPa
323.32 K, Crystal 1, Knudsen effusion | 0.03373 kPa
323.35 K, Crystal 1, Knudsen effusion | 0.03472 kPa
325.4 K, Crystal 1, Transpiration method | 0.04273 kPa
328 K, Crystal 1, Transpiration method | 0.05312 kPa
330.4 K, Crystal 1, Transpiration method | 0.06593 kPa
333.1 K, Crystal 1, Transpiration method | 0.08234 kPa
338.2 K, Crystal 1, Transpiration method | 0.1232 kPa
340.2 K, Crystal 1, Transpiration method | 0.1376 kPa
343.3 K, Crystal 1, Transpiration method | 0.1758 kPa
345.6 K, Crystal 1, Transpiration method | 0.213 kPa
348.3 K, Crystal 1, Transpiration method | 0.2639 kPa

[1], Liquid, Transpiration method
Settings | vapor or sublimation pressure [kPa]
364.6 K | 0.8624
365.7 K | 0.8948
367.9 K | 1.03
369.7 K | 1.119
370.5 K | 1.181
373.6 K | 1.388
373.7 K | 1.405
376.6 K | 1.661
377.7 K | 1.759
377.8 K | 1.786
379.7 K | 1.922
381.8 K | 2.124
382.8 K | 2.221
385.8 K | 2.574
388.9 K | 3.046
391.9 K | 3.486
394.9 K | 3.978

[1]
Settings | Triple point temperature [K]
Crystal 1 | 362.2
Crystal 2 | 301.5
Crystal 3 | 241.5

Settings | Molar enthalpy of transition or fusion [kJ/mol]
[2] | 12.45
